Starred links: 1 amine or outer side, 2 acyl side, 3 side chain; linkers in the order of their positions; H or OH if unused. Positions of bridges follow the written chain, without caps; N, C: chain ends. Non-standard residues stand in square brackets, D forms with d. Residues, ends and D or L forms follow the SMILES beside them. X39 = O=C([C@H](CNC[C@H](O)[C@@H](O)[C@H](O)C(O)CO[C@H]1O[C@H](CO)[C@H](O)[C@H](O)[C@H]1O)N[*:1])[*:2]; X56 = O=C([C@H](CCNC[C@@H](O)[C@H](O)[C@@H](O)[C@@H](O)[C@H](O)CO)N[*:1])[*:2]; X49 = O=C([C@H](CNC[C@@H](O)[C@H](O)[C@@H](O)[C@@H](O)[C@H](O)CO)N[*:1])[*:2]; X50 = O=C([C@H](CNC[C@@H](O)[C@@H](O)[C@H](O)[C@H](O)C(O)CO)N[*:1])[*:2]; Trp(1-CH2COOH) = N[C@@H](Cc1cn(CC(=O)O)c2ccccc12)C(=O)O; X12 = O=C([C@H](CNCc1cccc2ccc3ccccc3c12)N[*:1])[*:2]; X14 = O=C([C@H](CCNCc1cccc2[nH]ccc12)N[*:1])[*:2]; X13 = O=C([C@H](CNCc1cccc2[nH]ccc12)N[*:1])[*:2]; X16 = O=C([C@H](CCNCC(O)C(O)C(O)CO)N[*:1])[*:2]; X15 = O=C([C@H](CNCC(O)C(O)C(O)CO)N[*:1])[*:2]; Hyp = O=C(O)[C@@H]1C[C@@H](O)CN1; NMeNle = CCCC[C@H](NC)C(=O)O; NMeA = CN[C@@H](C)C(=O)O; Dab = NCC[C@H](N)C(=O)O
Biological target: T1, PD-1/PD-L1 (Homo sapiens, UniProt Q9NZQ7)
T1 construct: TVMV protease site (linker) (C); made in house; host or cells: HEK293T cells
Assay: PD-1/PD-L1 Homogenous Time-Resolved Fluorescence (HTRF) binding assay
Details: PD-L1-His 10 nM, PD-1-Ig 20 nM
Outline: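 Compounds preincubated 15 min with PD-L1-His (residues 18-239, 10 nM) in dPBS with 0.1% BSA, 0.05% Tween-20, then PD-1-Ig (residues 25-167, 20 nM) for 15 min. Eu-cryptate anti-Ig (1 nM) and APC anti-His (20 nM) equilibrated 30 min; 665/620 nm ratio read, IC50 derived.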

T1 sequence (Q9NZQ7 18-239): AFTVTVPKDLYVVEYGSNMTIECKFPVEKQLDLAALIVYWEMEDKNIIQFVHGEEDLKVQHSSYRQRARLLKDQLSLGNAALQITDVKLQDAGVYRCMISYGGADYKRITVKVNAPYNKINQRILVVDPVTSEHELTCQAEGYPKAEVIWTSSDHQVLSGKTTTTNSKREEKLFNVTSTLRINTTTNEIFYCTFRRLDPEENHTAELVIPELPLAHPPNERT

Point of comparison: `CCCC[C@H]1C(=O)N(C)[C@@H](CCCC)C(=O)N[C@@H](CC(C)C)C(=O)N[C@H](C(=O)NCC(N)=O)CSCC(=O)N[C@@H](Cc2ccc(O)cc2)C(=O)N(C)[C@@H](C)C(=O)N[C@@H](CC(N)=O)C(=O)N2CCC[C@H]2C(=O)N[C@@H](CNC[C@@H](O)[C@H](O)[C@@H](O)[C@@H](O)[C@H](O)CO)C(=O)N[C@@H](CC(C)C)C(=O)N2C[C@H](O)C[C@H]2C(=O)N[C@@H](Cc2c[nH]c3ccccc23)C(=O)N[C@@H](CCNC[C@@H](O)[C@H](O)[C@@H](O)[C@@H](O)[C@H](O)CO)C(=O)N[C@@H](Cc2cn(CC(=O)O)c3ccccc23)C(=O)N1C` [Example 2029] ({CH2CO}-Y[NMeA]NP[X49]L[Hyp]W[X56][Trp(1-CH2COOH)][NMeNle][NMeNle]LCG-NH2; thioether N-14), IC50 8.5 nM. Against it:
- CCCC[C@H]1C(=O)N(C)[C@@H](CCCC)C(=O)N[C@@H](CC(C)C)C(=O)N[C@H](C(=O)NCC(N)=O)CSCC(=O)N[C@@H](Cc2ccc(O)cc2)C(=O)N(C)[C@@H](C)C(=O)N[C@@H](CC(N)=O)C(=O)N2CCC[C@H]2C(=O)N[C@@H](CNC[C@H](O)[C@@H](O)[C@H](O)C(O)CO[C@H]2O[C@H](CO)[C@H](O)[C@H](O)[C@H]2O)C(=O)N[C@@H](CC(C)C)C(=O)N2C[C@H](O)C[C@H]2C(=O)N[C@@H](Cc2c[nH]c3ccccc23)C(=O)N[C@@H](CCN)C(=O)N[C@@H](Cc2cn(CC(=O)O)c3ccccc23)C(=O)N1C (stereo partly shown) [Example 2037] ({CH2CO}-Y[NMeA]NP[X39]L[Hyp]W[Dab][Trp(1-CH2COOH)][NMeNle][NMeNle]LCG-NH2; thioether N-14) — within 1.5-fold, 11 nM
- CCCC[C@H]1C(=O)N(C)[C@@H](CCCC)C(=O)N[C@@H](CC(C)C)C(=O)N[C@H](C(=O)NCC(N)=O)CSCC(=O)N[C@@H](Cc2ccc(O)cc2)C(=O)N(C)[C@@H](C)C(=O)N[C@@H](CC(N)=O)C(=O)N2CCC[C@H]2C(=O)N[C@@H](CNCc2cccc3ccc4ccccc4c23)C(=O)N[C@@H](CC(C)C)C(=O)N2C[C@H](O)C[C@H]2C(=O)N[C@@H](Cc2c[nH]c3ccccc23)C(=O)N[C@@H](CCN)C(=O)N[C@@H](Cc2cn(CC(=O)O)c3ccccc23)C(=O)N1C [Example 1005] ({CH2CO}-Y[NMeA]NP[X12]L[Hyp]W[Dab][Trp(1-CH2COOH)][NMeNle][NMeNle]LCG-NH2; thioether N-14) — 14-fold higher, 120 nM
- CCCC[C@H]1C(=O)N(C)[C@@H](CCCC)C(=O)N[C@@H](CC(C)C)C(=O)N[C@H](C(=O)NCC(N)=O)CSCC(=O)N[C@@H](Cc2ccc(O)cc2)C(=O)N(C)[C@@H](C)C(=O)N[C@@H](CC(N)=O)C(=O)N2CCC[C@H]2C(=O)N[C@@H](CNCC(O)C(O)C(O)CO)C(=O)N[C@@H](CC(C)C)C(=O)N2C[C@H](O)C[C@H]2C(=O)N[C@@H](Cc2c[nH]c3ccccc23)C(=O)N[C@@H](CCNCC(O)C(O)C(O)CO)C(=O)N[C@@H](Cc2cn(CC(=O)O)c3ccccc23)C(=O)N1C (stereo partly shown) [Example 2001] ({CH2CO}-Y[NMeA]NP[X15]L[Hyp]W[X16][Trp(1-CH2COOH)][NMeNle][NMeNle]LCG-NH2; thioether N-14) — within 1.5-fold, 7.8 nM
- CCCC[C@H]1C(=O)N(C)[C@@H](CCCC)C(=O)N[C@@H](CC(C)C)C(=O)N[C@H](C(=O)NCC(N)=O)CSCC(=O)N[C@@H](Cc2ccc(O)cc2)C(=O)N(C)[C@@H](C)C(=O)N[C@@H](CC(N)=O)C(=O)N2CCC[C@H]2C(=O)N[C@@H](CNC[C@@H](O)[C@@H](O)[C@H](O)[C@H](O)C(O)CO)C(=O)N[C@@H](CC(C)C)C(=O)N2C[C@H](O)C[C@H]2C(=O)N[C@@H](Cc2c[nH]c3ccccc23)C(=O)N[C@@H](CCN)C(=O)N[C@@H](Cc2cn(CC(=O)O)c3ccccc23)C(=O)N1C (stereo partly shown) [Example 2031] ({CH2CO}-Y[NMeA]NP[X50]L[Hyp]W[Dab][Trp(1-CH2COOH)][NMeNle][NMeNle]LCG-NH2; thioether N-14) — within 1.5-fold, 9.1 nM
- CCCC[C@H]1C(=O)N(C)[C@@H](CCCC)C(=O)N[C@@H](CC(C)C)C(=O)N[C@H](C(=O)NCC(N)=O)CSCC(=O)N[C@@H](Cc2ccc(O)cc2)C(=O)N(C)[C@@H](C)C(=O)N[C@@H](CC(N)=O)C(=O)N2CCC[C@H]2C(=O)N[C@@H](CNCc2cccc3[nH]ccc23)C(=O)N[C@@H](CC(C)C)C(=O)N2C[C@H](O)C[C@H]2C(=O)N[C@@H](Cc2c[nH]c3ccccc23)C(=O)N[C@@H](CCNCc2cccc3[nH]ccc23)C(=O)N[C@@H](Cc2cn(CC(=O)O)c3ccccc23)C(=O)N1C [Example 1008] ({CH2CO}-Y[NMeA]NP[X13]L[Hyp]W[X14][Trp(1-CH2COOH)][NMeNle][NMeNle]LCG-NH2; thioether N-14) — 1.7-fold lower, 4.9 nM
- CCCC[C@H]1C(=O)N(C)[C@@H](CCCC)C(=O)N[C@@H](CC(C)C)C(=O)N[C@H](C(=O)NCC(N)=O)CSCC(=O)N[C@@H](Cc2ccc(O)cc2)C(=O)N(C)[C@@H](C)C(=O)N[C@@H](CC(N)=O)C(=O)N2CCC[C@H]2C(=O)N[C@@H](CNCc2cccc3[nH]ccc23)C(=O)N[C@@H](CC(C)C)C(=O)N2C[C@H](O)C[C@H]2C(=O)N[C@@H](Cc2c[nH]c3ccccc23)C(=O)N[C@@H](CCN)C(=O)N[C@@H](Cc2cn(CC(=O)O)c3ccccc23)C(=O)N1C [Example 1015] ({CH2CO}-Y[NMeA]NP[X13]L[Hyp]W[Dab][Trp(1-CH2COOH)][NMeNle][NMeNle]LCG-NH2; thioether N-14) — 1.7-fold lower, 5.1 nM
